Columns and labels:
L. infantum amastigotes = assay: Antiamastigote assay (L. infantum), ex vivo intracellular model of mice macrophages, microscopy; assay type: cell-based, Leishmania (L.) infantum; details: Leishmania infantum, Peritoneal macrophage, 96 h, ± SD, intracellular, peritoneal macrophages, read-out: L. infantum IC50 amastigotes
Experimental: Table 1 depicts the antileishmanial (L. infantum) activity evaluation performed against both the amastigote form (evaluated microscopically using an ex vivo intracellular model of mice macrophages) and the promastigote one (using an MTT colorimetric method).[32],[33] The cytotoxicity was evaluated against NCTC cells using an MTT colorimetric method and the selectivity index was determined using the ratio between the CC50 values (NCTC cells) and the IC50 values (amastigotes).[32] […] With respect to the substituents on the C ring, larger, hydrophobic groups conferred greater bioactivity (e.g., 9b–d), whereas small, hydrophilic groups such as a hydroxyl group afford modest to poor bioactivity.
Leishmania (L.) infantum (MHOM/BR/1972/LD) amastigotes were obtained from golden hamsters (Mesocricetus auratus) spleens following 60-70 days of infection via differential centrifugation. The Stauber method was used to determine the number of parasites.12 […]
Peritoneal macrophages were obtained via washing the peritoneal cavity of BALB/c mice with 10% foetal calf serum supplemented RPMI-1640 medium (pH 7.2). The macrophages were maintained in a humidified incubator at 37 °C and with 5% CO2.
Biological activity assays […]
Antiamastigote Assay (L. infantum)
Peritoneal macrophages (1 × 10^5/well) were added to a 16-well slide chambers (NUNC) and incubated with 5% CO2 at 37 °C. The cells were subsequently infected with L. infantum amastigotes (10:1 amastigotes/macrophage) for 24 h. Treatment of the cells with selected compounds (serially diluted 1.2 to 150 μM) was performed in a humidified incubator for 96 h at 37 °C and with 5% CO2. Untreated cells were used as a negative control and miltefosine was used as a standard drug. The treated cells were fixed on slides with methanol, stained with Giemsa and observed under a light microscope.13 The infection index was used in order to determine the half inhibitory concentration (IC50) (no. infected macrophages × no. amastigotes / total no. […]

[1] = system: L. mexicana promastigotes; assay: Light microscopy of cell morphology; assay type: cell-based, Leishmania (L.) mexicana
Experimental: Preliminary investigations into the mechanism of action for compounds (S)-9a, (S)-9b and (S,R)-11 were carried out using L. mexicana promastigotes. Light microscopy-based techniques were employed to further explore compound activity in a different, related Leishmania species. […] A solvent-only control using 0.1% (v/v) DMSO led to no significant effects. Cell cultures were examined by light microscopy to identify any morphological changes resulting from compound treatment (Figure 2B). […] Cells treated with the BI and BBI compounds develop a changed morphology with a spherical cell body or shortened flagellum. This effect is observed in 25% of the population for compound (S)-9a, to a greater extent (66%) for (S)-9b, and 27% for compound (S,R)-11. An abnormal number and position of Ks and Ns were often observed, with Ks and Ns sometimes less well-defined by Hoechst 33342 staining. […]
If the radar plot falls completely within the pink area, the compounds is predicted to have good oral […]
Figure S1. Bioavailability radars for hit compounds as generated by the SwissADME Webtool.
General Experimental Considerations
MTT was obtained from Molecular Probes® (Invitrogen™). Foetal calf serum (FCS, 10500064), M199 medium (M199 containing Earle’s salts and L-glutamine, 31100019), were purchased from Gibco. Hemin (H9039) was obtained from Sigma Aldrich. The FilterMax F5 Multi-Mode Microplate Reader spectrofluorimeter (Molecular Devices) was used to obtain all absorbance readings.
Microscopy was performed with a widefield fluorescence microscope (Axio Observer A1, Zeiss) using a 63× NA 1.4 Plan-Apochromat oil immersion objective lens and a 120V metal halide fluorescence light source (Zeiss, HXP 120V) with a Hamamatsu ORCA-Flash4.0 camera. Standard fluorescence microscopy was performed with a Green (ThorLabs, MDF-GFP2) and/or Blue (Zeiss, 49) filter cube. […]

Row | SMILES | IC50 (L. infantum amastigotes) | Abnormal morphology (spherical cell body or shortened flagellum), share of population ([1]; 50 μM) | Abnormal morphology (spherical cell body or shortened flagellum), share of population ([1]; 5 μM)
1 | COc1cc2c(cc1OC)[C@H](Cc1ccc(Br)cc1)N(C)CC2 [(S)-9a] | 13.3 ± 0.9 µM | 25% | 
2 | COc1cc2c(cc1OC)[C@H](Cc1ccc(OC)c(OCc3ccccc3)c1)N(C)CC2 [(S)-9b] | 26.7 ± 2 µM | 66% | 
3 | COc1cc2c(cc1OC)[C@@H](Cc1ccc(Oc3cc(C[C@H]4c5cc(OC)c(OC)cc5CCN4C)ccc3OC)cc1)N(C)CC2 [(S,R)-11, (−)-O,O′-dimethylgrisabine] | > 150 µM |  | 27%
